Assay results published in publication PMC4096222 (Journal of Medicinal Chemistry, 2014).
Read-outs that look alike come from different tables or passages of the source.

Legend:
[1] = biological target: A/M2 wt (Influenza A virus, UniProt P0DOF5); assay type: cell-based
[2] = tested on: A/PR/8/34 (A/H1N1); assay type: cell-based, influenza A virus
[3] = tested on: MDCK cells; details: for cytotoxicity MCC: minimum cytotoxic concentration, minimal alterations in cell morphology after 72 h, MDCK; for concentration at which visibly toxic: MDCK cells
[4] = tested on: A/HK/7/87; assay type: cell-based, influenza A virus; details: for inhibition of plaque formation: at 0.5–2 μM, 72 h
[5] = tested on: A/HK/7/87 (A/H3N2); experiment: microbe, parasite or virus in culture; assay type: cell-based; details: Influenza A virus, H3N2, MDCK, 72 h, read-out: antiviral EC50 values against A/HK/7/87 (range)
[6] = read-out: antiviral activity A/PR/8/34 EC50 (CPE)
[7] = read-out: antiviral activity A/PR/8/34 EC50 (MTS)

Chain of A/M2 wt (P0DOF5 whole entry, looked up): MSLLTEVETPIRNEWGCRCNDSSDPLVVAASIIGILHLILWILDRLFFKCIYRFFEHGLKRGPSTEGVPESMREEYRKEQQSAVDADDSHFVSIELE

Compound	activity on A/M2 channels [1]	EC50 [2, 6] [µM]	EC50 [2, 7] [µM]	cytotoxicity MCC [3] [µM]	inhibition of plaque formation [4]	inhibition of wt channel [1]	EC50 [5] [µM]	activity in virus yield and plaque reduction assays [4]	reduction in plaque size or number [4]	concentration at which visibly toxic [3] [nM]
C1=CC2C3CC3C1C1CN(C3CCNCC3)CC21.Cl (centres unmarked) [compound 8, 4-(4-Piperidinyl)-4-azatetracyclo[5.3.2.0^2,6.0^8.10]dodec-11-ene Dihydrochloride]	did not display any activity	≤ 0.8	< 0.8	100						
CC12CC34CNCC35CC1(C)C(C)(C5)C2(C)C4.Cl (centres unmarked) [compound 18, 7,8,9,10-Tetramethyl-3-azapentacyclo[7.2.1.1^5,8.0^1,5.0^7,10]tridecane Hydrochloride]				100	visible inhibition of plaque formation					
C1CC2C3CNCC3C1C1CC21.Cl (centres unmarked) [compound 6, 4-Azatetracyclo[5.3.2.0^2,6.0^8.10]dodecane Hydrochloride]		> 100	> 100	100		potent low-micromolar inhibitors	3 to 8	confirmed the activity		
Cl.N=C(N)N1CC2C3C=CC(C4C=CC43)C2C1 (centres unmarked) [compound 13, 4-Amidino-4-azatetracyclo[5.4.2.0^2,6.0^8.11]trideca-9,12-diene Hydrochloride]		> 100	> 100	20	visible inhibition of plaque formation	potent low-micromolar inhibitors				
Cl.N=C(N)N1CC2C3CCC(C4CC34)C2C1 (centres unmarked) [compound 7, 4-Amidino-4-azatetracyclo[5.3.2.0^2,6.0^8.10]dodecane Hydrochloride]		> 100	> 100	100		potent low-micromolar inhibitors				
Cl.N=C(N)N1CC2C3C=CC(C4CC34)C2C1 (centres unmarked) [compound 5, 4-Amidino-4-azatetracyclo[5.3.2.0^2,6.0^8.10]dodec-11-ene Hydrochloride]		> 100	> 100	100		potent low-micromolar inhibitors				
C1CC(N2CC3C4CCC(C5CC45)C3C2)CCN1.Cl (centres unmarked) [compound 9, 4-(4-Piperidinyl)-4-azatetracyclo[5.3.2.0^2,6.0^8.10]dodecane Dihydrochloride]	did not display any activity	> 100	> 100	20						
C1CC2C1C1CCC2C2CNCC12.Cl (centres unmarked) [compound 12, 4-Azatetracyclo[5.4.2.0^2,6.0^8.11]tridecane Hydrochloride]		> 100	> 100			potent low-micromolar inhibitors			clear	2000 to 8000
Cl.N=C(N)N1CC2C3CCC(C4CCC43)C2C1 (centres unmarked) [compound 14, 4-Amidino-4-azatetracyclo[5.4.2.0^2,6.0^8.11]tridecane Hydrochloride]		> 100	> 100	4		potent low-micromolar inhibitors			modest	2000 to 8000
C1=CC2C3CNCC3C1C1CC21.Cl (centres unmarked) [compound 4, 4-Azatetracyclo[5.3.2.0^2,6.0^8.10]dodec-11-ene Hydrochloride]		> 100	> 100	100		potent low-micromolar inhibitors	3 to 8	confirmed the activity		
C1=CC2C1C1C=CC2C2CNCC12.Cl (centres unmarked) [compound 11, 4-Azatetracyclo[5.4.2.0^2,6.0^8.11]trideca-9,12-diene Hydrochloride]			< 0.8		visible inhibition of plaque formation	potent low-micromolar inhibitors				
NC12CC3CC(CC(C3)C1)C2 [amantadine, reference compound]			34							
CC12CC34CN(C(=N)N)CC35CC1(C)C(C)(C5)C2(C)C4.Cl (centres unmarked) [compound 19, 3-Amidino-7,8,9,10-tetramethyl-3-azapentacyclo[7.2.1.1^5,8.0^1,5.0^7,10]tridecane Hydrochloride]		> 100	> 100	≥4						
